Measured values reported in US20160237146A1, “Methods of Preventing or Reducing Photoreceptor Cell Death” (MASSACHUSETTS EYE AND EAR INFIRMARY, priority 2013, published 2016).
“Also recorded” adds a separate entry of the source.

Key:
[1] = test system: photoreceptor cell death in response to RD; experiment: Mouse model of retinal detachment, TUNEL labeling of the ONL; assay type: in vivo, mice
Description: Briefly, RD was created in the right eye of adult mice (8-12 weeks), as previously reported (Hisatomi, T. et al., Am J Pathol, 2001, 158:1271-1278), with minor modification. Briefly, mice were anesthetized using a mixture of ketamine (80 mg/kg) and xylazine (8 mg/kg). Deep anesthesia was confirmed by a toe pinch test. One drop of proparacaine hydrochloride (0.5%) (Akorn, 17478-263-12) was administered to each eye. A self-sealing scleral incision was made using a 30 G needle. Next, an anterior chamber puncture was performed from the cornea to reduce intraocular pressure. A 33 G needle attached to a Hamilton 10 μl syringe was inserted into the subretinal space, and 4 μl sodium hyaluronate (Provisc®, Alcon) was gently injected to enlarge the RD (fundus Image of a retinal detachment; FIG. 7A) (Matsumoto, H. et al., J Vis Exp, 2013, (79)). After the injection, glue (Webglue™) was put on the scleral wound and the conjunctiva reattached to the original position. Photoreceptor apoptosis was assessed (12-72 hours post detachment) by identifying TUNEL positive cells in cross sections (FIGS. 7C and D).
Twenty-four hours post-injury, retinas were isolated and cross-sections were prepared for staining with DAPI (a nuclear marker) and TUNEL (a cell death marker). The mid-point of the retinal arc between the optic nerve and the edge of the retina was quantified for TUNEL positive cells.
The model of retinal detachment was performed precisely as described above with one modification: Prior to injecting the provisc 1 μl of the purified C3 antibody (0.1 μg) or IgG2a isotype control (Life Technologies, 02-9688) was injected into the sub-retinal space through the scleral tunnel. The eyes were enucleated 24 hours after RD and processed for TUNEL labeling as described earlier.

Fb = settings: retina 24 hours after RD, mice kept in 75% oxygen vs room air
Description: RNA was isolated using an RNeasy micro kit (Qiagen, 74004, Valencia, Calif.) for LCM samples or an RNeasy mini kit (Qiagen, 74106, Valencia, Calif.) for whole retina. Total RNA was measured using a nanodrop spectrophotometer (Thermo Scientific, Nanodrop 2000, Waltham, Mass.) then each sample was normalized prior to transcribing cDNA. cDNA was transcribed using superscript III (Invitrogen, 18080-044, Carlsbad, Calif.) then one microliter of cDNA was used for each RTPCR reaction. […] Primers for Cd55 using photoreceptors isolated by LCM were obtained through Integrated DNA Technologies using their online Primer Quest design tool and importing the NCBI ID number for the sequence (Forward 5′-[sequence]-3′ (SEQ ID NO: 5) and Reverse 5′-[sequence]-3′ (SEQ ID NO: 6)). RTPCR was run in triplicate and the average of each CT value used for analysis. All CT values were normalized to beta actin from each sample as an internal control. Final values were determined using the MET method.
After 24 hours the mice were anesthetized under a heavy dose of avertin (2,2,2 tribromo ethanol, Sigma, T4, 840-2) at a working concentration of 10 mg/ml and injected at a dose of 0.25-0.5 mg/gram intraperitoneally. In one group the eyes were enucleated and frozen in OCT compound using isopropanol chilled by dry ice. The eyes were then processed for TUNEL labeling and quantified as described above. […]

Row | Compound | cell death (TUNEL positive cells in the ONL) ([1]; mice housed 24 hours after RD in a 75% oxygen chamber vs room air (approximately 21% oxygen)) | Fb expression, alternative pathway activation (Fb) | photoreceptor cell death (TUNEL positive cells in the ONL) ([1]; C3-/- mice, sub-retinal injection prior to Provisc, 24 hours after RD, vs PBS)
1 | O=O [75% oxygen, oxygen] | significant reduction in cell death | significantly less Fb expression | 
2 | cobra venom factor [CVF] |  |  | significant up-regulation of photoreceptor cell death; also recorded: increased photoreceptor cell death after RD
